Patent US12054494B2, “Compound with anticancer activity” (KYOWA KIRIN CO., LTD., priority 2018, dated 2024)
Where a name gives a salt, the structure may show the parent alone.

Each compound was assayed on SU-DHL-4 cells (assay: Inhibitory effect on cell viability (Cell Counting Kit-8)). Conditions: Homo sapiens, 72 hours culture with test compound, concentration showing 90% inhibition rate of cell viability.
Format: cell-based
Summary of the method: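 IC90 corresponds to 90% loss of viability, measured as CCK-8 absorbance at 450 nm (2-3 h colour development). Compounds in 9 dilutions (0.1% DMSO) were applied for 72 h at 37° C to SU-DHL-4 lymphoma cells seeded at 2000/well in RPMI1640/10% FBS after 18-25 h preculture.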

SMILES	IC90
Cc1sc2c(c1C)C(c1ccc(C(=O)NCCCNC(=O)c3ccc(C4=N[C@@H](CC(=O)OC(C)(C)C)c5nnc(C)n5-c5sc(C)c(C)c54)cc3)cc1)=N[C@@H](CC(=O)OC(C)(C)C)c1nnc(C)n1-2 [Compound 1b, Di-tert-butyl 2,2′-[(6S,6′S)-({[propane-1,3-diylbis(azanediyl)]bis(carbonyl)}bis(4,1-phenylene))bis(2,3,9-trimethyl-6H-thieno[3,2-f][1,2,4]triazolo[4,3-a][1,4]diazepine-4,6-diyl)]diacetate]	1.78 nM
CCC(=O)N1c2ccccc2[C@H](Nc2ccc(C(=O)N3CC4CC3CN4C(=O)c3ccc(N[C@@H]4C[C@H](C)N(C(=O)CC)c5ccccc54)cc3)cc2)C[C@@H]1C [Compound 1k, 1,1′-{(2S,2′S,4R,4′R)-{[(2,5-Diazabicyclo[2.2.1]heptane-2,5-dicarbonyl)bis(4,1-phenylene)]bis(azanediyl)}bis[2-methyl-3,4-dihydroquinoline-4,1(2H)-diyl]}bis(propan-1-one)]	0.55 nM
CCC(=O)N1c2ccccc2[C@H](Nc2ccc(C(=O)NCC(=O)CNC(=O)c3ccc(N[C@@H]4C[C@H](C)N(C(=O)CC)c5ccccc54)cc3)cc2)C[C@@H]1C [Compound 1l, N,N′-(2-Oxopropane-1,3-diyl)bis(4-{[(2S,4R)-2-methyl-1-propionyl-1,2,3,4-tetrahydroquinolin-4-yl]amino}benzamide)]	0.04 nM
CCC(=O)N1c2ccccc2[C@H](Nc2ccc(C(=O)NC3CCN(C(=O)c4ccc(C5=NCc6nnc(C)n6-c6sc(C)c(C)c65)cc4)CC3)cc2)C[C@@H]1C [Compound 1m, 4-{[(2S,4R)-2-Methyl-1-propionyl-1,2,3,4-tetrahydroquinolin-4-yl]amino}-N-{1-[4-(2,3,9-trimethyl-6H-thieno[3,2-f][1,2,4]triazolo[4,3-a][1,4]diazepin-4-yl)benzoyl]piperidin-4-yl}benzamide]	0.53 nM
CCC(=O)N1c2ccccc2[C@H](Nc2ccc(C(=O)N3CC(NC(=O)c4ccc(C5=N[C@@H](CC(=O)OC(C)(C)C)c6nnc(C)n6-c6sc(C)c(C)c65)cc4)C3)cc2)C[C@@H]1C [Compound 1n, tert-Butyl 2-[(S)-2,3,9-trimethyl-4-(4-{[1-(4-{[(2S,4R)-2-methyl-1-propionyl-1,2,3,4-tetrahydroquinolin-4-yl]amino}benzoyl)azetidin-3-yl]carbamoyl}phenyl)-6H-thieno[3,2-f][1,2,4]triazolo[4,3-a][1,4]diazepin-6-yl]acetate]	0.49 nM
CCC(=O)N1c2ccccc2[C@H](Nc2ccc(C(=O)NCc3cn(-c4ccc(N[C@@H]5C[C@H](C)N(C(=O)CC)c6ccccc65)cc4)nn3)cc2)C[C@@H]1C [Compound 3a, 4-{[(2S,4R)-2-Methyl-1-propionyl-1,2,3,4-tetrahydroquinolin-4-yl]amino}-N-{[1-(4-{[(2S,4R)-2-methyl-1-propionyl-1,2,3,4-tetrahydroquinolin-4-yl]amino}phenyl)-1H-1,2,3-triazol-4-yl]methyl}benzamide]	0.04 nM
CCC(=O)N1c2ccccc2[C@H](Nc2ccc(C(=O)NCc3nnc(-c4ccc(N[C@@H]5C[C@H](C)N(C(=O)CC)c6ccccc65)cc4)o3)cc2)C[C@@H]1C [Compound 3c, 4-{[(2S,4R)-2-Methyl-1-propionyl-1,2,3,4-tetrahydroquinolin-4-yl]amino}-N-{[5-(4-{[(2S,4R)-2-methyl-1-propionyl-1,2,3,4-tetrahydroquinolin-4-yl]amino}phenyl)-1,3,4-oxadiazol-2-yl]methyl}benzamide]	0.11 nM
CCC(=O)N1c2ccccc2[C@H](Nc2ccc(C(=O)NCc3noc(-c4ccc(N[C@@H]5C[C@H](C)N(C(=O)CC)c6ccccc65)cc4)n3)cc2)C[C@@H]1C [Compound 3d, 4-{[(2S,4R)-2-Methyl-1-propionyl-1,2,3,4-tetrahydroquinolin-4-yl]amino}-N-{[5-(4-{[(2S,4R)-2-methyl-1-propionyl-1,2,3,4-tetrahydroquinolin-4-yl]amino}phenyl)-1,2,4-oxadiazol-3-yl]methyl}benzamide]	0.11 nM
CCC(=O)N1c2ccccc2[C@H](Nc2ccc(C(=O)N3CCn4c(-c5ccc(N[C@@H]6C[C@H](C)N(C(=O)CC)c7ccccc76)cc5)cnc4C3)cc2)C[C@@H]1C [Compound 3e, 1-[(2S,4R)-2-Methyl-4-({4-[3-(4-{[(2S,4R)-2-methyl-1-propionyl-1,2,3,4-tetrahydroquinolin-4-yl]amino}phenyl)-5,6,7,8-tetrahydroimidazo[1,2-a]pyrazine-7-carbonyl]phenyl}amino)-3,4-dihydroquinolin-1(2H)-yl]propan-1-one]	0.12 nM
CCC(=O)N1c2ccccc2[C@H](Nc2ccc(C(=O)N3CCn4cc(-c5ccc(N[C@@H]6C[C@H](C)N(C(=O)CC)c7ccccc76)cc5)nc4C3)cc2)C[C@@H]1C [Compound 3f, 1-[(2S,4R)-2-Methyl-4-({4-[2-(4-{[(2S,4R)-2-methyl-1-propionyl-1,2,3,4-tetrahydroquinolin-4-yl]amino}phenyl)-5,6,7,8-tetrahydroimidazo[1,2-a]pyrazine-7-carbonyl]phenyl}amino)-3,4-dihydroquinolin-1(2H)-yl]propan-1-one]	0.33 nM

Continued, values first:

IC90	SMILES
1.19 nM	CCC(=O)N1c2ccccc2[C@H](Nc2ccc(SCCNC(=O)c3ccc(N[C@@H]4C[C@H](C)N(C(=O)CC)c5ccccc54)cc3)cc2)C[C@@H]1C [Compound 4f, 4-{[(2S,4R)-2-Methyl-1-propionyl-1,2,3,4-tetrahydroquinolin-4-yl]amino}-N-{2-[(4-{[(2S,4R)-2-methyl-1-propionyl-1,2,3,4-tetrahydroquinolin-4-yl]amino}phenyl)thio]ethyl}benzamide]
2.15 nM	CCC(=O)N1c2ccccc2[C@H](Nc2ccc(NC(=O)c3coc(Nc4ccc(N[C@@H]5C[C@H](C)N(C(=O)CC)c6ccccc65)cc4)n3)cc2)C[C@@H]1C [Compound 5a, N-(4-(((2S,4R)-2-Methyl-1-propionyl-1,2,3,4-tetrahydroquinolin-4-yl)amino)phenyl)-2-((4-(((2S,4R)-2-methyl-1-propionyl-1,2,3,4-tetrahydroquinolin-4-yl)amino)phenyl)amino)oxazole-4-carboxamide]
39.6 nM	CCC(=O)N1c2ccccc2[C@H](Nc2ccc(CN3CCn4cc(-c5ccc(N[C@@H]6C[C@H](C)N(C(=O)CC)c7ccccc76)cc5)nc4C3)cc2)C[C@@H]1C [Compound 5b, 1-((2S,4R)-2-Methyl-4-((4-((2-(4-(((2S,4R)-2-methyl-1-propionyl-1,2,3,4-tetrahydroquinolin-4-yl)amino)phenyl)-5,6-dihydroimidazo[1,2-a]pyrazin-7(8H)-yl)methyl)phenyl)amino)-3,4-dihydroquinolin-1(2H)-yl)propan-1-one]
63.6 nM	CCC(=O)N1c2ccccc2[C@H](Nc2ccc(Cc3cnc4n3CCN(Cc3ccc(N[C@@H]5C[C@H](C)N(C(=O)CC)c6ccccc65)cc3)C4)cc2)C[C@@H]1C [Compound 5c, 1,1′-((2S,2′S,4R,4′R)-((((5,6-Dihydroimidazo[1,2-a]pyrazine-3,7(8H)-diyl)bis(methylene))bis(4,1-phenylene))bis(azanediyl))bis(2-methyl-3,4-dihydroquinoline-4,1(2H)-diyl))bis(propan-1-one)]
0.67 nM	CCC(=O)N1c2ccccc2[C@H](Nc2ccc(NC(=O)CNCC(=O)Nc3ccc(N[C@@H]4C[C@H](C)N(C(=O)CC)c5ccccc54)cc3)cc2)C[C@@H]1C [Compound 5d, 2,2′-Azanediylbis(N-(4-(((2S,4R)-2-methyl-1-propionyl-1,2,3,4-tetrahydroquinolin-4-yl)amino)phenyl)acetamide)]
5.93 nM	CCC(=O)N1c2ccccc2[C@H](Nc2ccc(CNC3CN(C(=O)c4ccc(N[C@@H]5C[C@H](C)N(C(=O)CC)c6ccccc65)cc4)C3)cc2)C[C@@H]1C [Compound 5e, 1-((2S,4R)-2-Methyl-4-((4-(((1-(4-(((2S,4R)-2-methyl-1-propionyl-1,2,3,4-tetrahydroquinolin-4-yl)amino)benzoyl)azetidin-3-yl)amino)methyl)phenyl)amino)-3,4-dihydroquinolin-1(2H)-yl)propan-1-one]
24.7 nM	CCC(=O)N1c2ccccc2[C@H](Nc2ccc(CNCCn3cc(-c4ccc(N[C@@H]5C[C@H](C)N(C(=O)CC)c6ccccc65)cc4)cn3)cc2)C[C@@H]1C [Compound 5f, 1-((2S,4R)-2-Methyl-4-((4-(((2-(4-(4-(((2S,4R)-2-methyl-1-propionyl-1,2,3,4-tetrahydroquinolin-4-yl)amino)phenyl)-1H-pyrazol-1-yl)ethyl)amino)methyl)phenyl)amino)-3,4-dihydroquinolin-1(2H)-yl)propan-1-one]
2.53 nM	CCC(=O)N1c2ccccc2[C@H](Nc2ccc(CNCc3nnc(-c4ccc(N[C@@H]5C[C@H](C)N(C(=O)CC)c6ccccc65)cc4)o3)cc2)C[C@@H]1C [Compound 5g, 1-((2S,4R)-2-Methyl-4-((4-((((5-(4-(((2S,4R)-2-methyl-1-propionyl-1,2,3,4-tetrahydroquinolin-4-yl)amino)phenyl)-1,3,4-oxadiazol-2-yl)methyl)amino)methyl)phenyl)amino)-3,4-dihydroquinolin-1(2H)-yl)propan-1-one]
0.12 nM	CCC(=O)N1c2ccccc2[C@H](Nc2ccc(CNCc3cn(-c4ccc(N[C@@H]5C[C@H](C)N(C(=O)CC)c6ccccc65)cc4)nn3)cc2)C[C@@H]1C [Compound 5h, 1-((2S,4R)-2-Methyl-4-((4-((((1-(4-(((2S,4R)-2-methyl-1-propionyl-1,2,3,4-tetrahydroquinolin-4-yl)amino)phenyl)-1H-1,2,3-triazol-4-yl)methyl)amino)methyl)phenyl)amino)-3,4-dihydroquinolin-1(2H)-yl)propan-1-one]
4.49 nM	CCC(=O)N1c2ccccc2[C@H](Nc2ccc(CNCC(=O)Nc3ccc(N[C@@H]4C[C@H](C)N(C(=O)CC)c5ccccc54)cc3)cc2)C[C@@H]1C [Compound 5i, 2-((4-(((2S,4R)-2-Methyl-1-propionyl-1,2,3,4-tetrahydroquinolin-4-yl)amino)benzyl)amino)-N-(4-(((2S,4R)-2-methyl-1-propionyl-1,2,3,4-tetrahydroquinolin-4-yl)amino)phenyl)acetamide hydrochloride]
